# Experimental data: patent US8361510B2, “Nanogels for cellular delivery of therapeutics” (Georgia Tech Research Corporation, priority 2008, dated 2013)
# Where no end group is shown, it is not given here.
# Test system: EGFR
# Assay: EGFR expression by immunoblotting in Hey cells
# Format: cell-based
# Method: Immunoblotting. Hey cells were plated into 6-well plates (5×10^5/well) and allowed to adhere overnight at 37° C., 5% CO2. The cells were lysed with 100 μL of lysis buffer (50 mM Tris-HCl, pH 7.5, 150 mM NaCl, 2 mM EDTA (Fisher), 2 mM EGTA (Fisher), 1 mM sodium orthovanadate, 2.5 mM sodium pyrophosphate, 1 mM β-gycerolphosphate, 1 mM phenylmethanesulfonyl fluoride, 10 μg/mL aprotinin, 10 μg/mL leupeptin, 1% Triton X-100, and 5% glycerol), and the cell lysates sonicated four times for five seconds each. The lysates were cleared by centrifugation at 11,000×g rcf for […] at 4° C. Cell lysates were prepared for analysis by the addition of an equal volume of Laemmli 2× sample buffer. The samples were heated to 95° C. for […] to denature the proteins. The proteins were separated on a 10% SDS-PAGE gel and transferred onto nitrocellulose. The blots were blocked with either 5% nonfat dry milk (NFDM) or 5% bovine serum albumin (BSA) in 10 mM Tris-buffered saline, pH 7.5 plus 1% Tween 20 (TBST, BioRad) for 1 hour at room temperature. The blots were probed with anti-EGFR antibody (Cell Signaling, Danvers, Mass.; cat. no. 4405) or with a β-actin antibody (Millipore, Billerica, Mass.; Mab1501) diluted in 5% NFDM or 5% BSA overnight, with shaking at 4° C. For EphA2 detection, the blots were probed with an anti-EphA2 polyclonal antibody (Santa Cruz Biotechnology, Santa Cruz, Calif.; sc-294). The blots were washed three times with TBST and probed with goat anti-rabbit IgG (Santa Cruz, sc-2004) or with goat anti-mouse IgG (Santa Cruz, sc-2005) linked to horseradish peroxidase (HRP). Bands were visualized on film (Pierce) using the ECL reagent, SuperSignal West Pico™ (Pierce).
# As described above, we chose siRNA targeting EGFR; knockdown of this receptor is non-lethal, but has clinical relevance in the treatment of drug resistant ovarian carcinomas. To determine if we could effectively knockdown EGFR in vitro, EGFR siRNA was encapsulated at a concentration of 16.6 μg of EGFR siRNA/mg of nanogels, using the loading technique described above. […]
substance,measurement,setting,value
YSA-conjugated nanogels: core/shell pNIPMAm nanogels with YSA peptide coupled to shell amines via maleimide (EMCA) (YSAYPDSVPMMSC; also: coupled to nanogel shell amines via maleimide (EMCA)),EGFR expression relative to controls,"Example 1, 4 h incubation, harvested at 48 hours, 1 mg nanogels/5×10^5 cells","small, statistically insignificant decrease"
same,EGFR expression of control treatments compared to untreated cells,Example 2,slight decrease
